# Measurements reported in article PMC7927146, “Discovery of an Orally Available Diazabicyclooctane Inhibitor (ETX0282) of Class A, C, and D Serine β-Lactamases” (Journal of Medicinal Chemistry, 2020).
# Where a name gives a salt, the structure may show the parent alone.
# Assays:
# log D = format: physicochemical
# [1] = biological target: P. aeruginosa AmpC (Class C) (Pseudomonas aeruginosa, UniProt P24735); assay: β-lactamase inhibition, nitrocefin hydrolysis progress curves; format: biochemical
# [2] = biological target: K. pneumoniae OXA-48 (Class D) (Klebsiella pneumoniae, UniProt Q6XEC0); assay: biochemical
# [3] = tested on: K. pneumoniae ARC561 (OKP-6, AmpC, OXA-2, SHV-18) ATCC700603; assay: Broth microdilution MIC (BLI alone, cefpodoxime, cefpodoxime + BLI); format: cell-based; details: for MIC: Klebsiella pneumoniae, ATCC700603
# [4] = tested on: E. coli ARC3627 (OXA-1, AmpC, CTX-M-15, TEM-1); assay: as above; format: cell-based; details: for MIC: Escherichia coli
# [5] = cited from earlier work
# E. coli TEM-1 (Class A) = E. coli TEM-1 (Class A) (Escherichia coli, UniProt P62593); assay: β-lactamase inhibition, nitrocefin hydrolysis progress curves; format: biochemical; details: supplement CSV; incubation time not given, values correspond to 60 min
# [6] = biological target: class A, C, and D serine β-lactamases; assay: β-lactamase inhibition, statements over the enzyme panel; format: biochemical; details: 60 min; TEM-1, AmpC, OXA-48; read-out: IC50 against β-lactamases, all values
# Description: The spectrum of class A, C, and D β-lactamase inhibition by ETX1317 was evaluated by measuring its ability to protect the β-lactamase substrate nitrocefin from degradation using previously described methods.[13]
# The methods used to measure inhibition of β-lactamases were the same as those described in the supplement to Durand-Reville et al.[13] Reaction progress curves at 490 nm for hydrolysis of the chromogenic β-lactamase substrate nitrocefin (SynGene, Bangalore, India) at 100 μM were measured for a range of inhibitor concentrations in 0.1 M sodium phosphate (pH 7.0), 10 mM NaHCO3, and 0.005% Triton X-100 at ambient temperature using a Spectramax absorbance plate reader (Molecular Devices, Sunnyvale, CA). The set of 12 progress curves were fit globally to a second-order kinetic model of enzyme inactivation. […] The second-order inactivation rate constant kinact/Ki was calculated from the set of progress curves using Global Kinetic Explorer (Kintek) as previously described.[13]
# [7] = tested on: E. coli ARC2687 (CTX-M-14, AmpC); assay: Broth microdilution MIC; format: cell-based; details: Escherichia coli, agent alone
# Description: (§1) The potency and spectrum of β-lactamase inhibition by ETX1317 supported further antibacterial profiling in combination with β-lactams against relevant Gram-negative clinical isolates. Approved penicillins and cephalosporins administered orally were evaluated, using not only MIC as a criterion but also oral bioavailability, approved dose levels, and unbound plasma exposures. Cefpodoxime (CPD) emerged as the lead β-lactam candidate.[30] Its approved use as an orally bioavailable proxetil ester prodrug to treat UTI infections was also aligned with our potential target product profile. A fixed 1:2 ratio of cefpodoxime/ETX1317 was utilized as the testing paradigm for antimicrobial susceptibility. […] The addition of ETX1317 to CPD restored its activity to ≤0.5 μg/mL across all Enterobacterales isolates tested, including the CRE strains (identified by “a” in Table 6).
# (§2) The broth microdilution susceptibility testing was conducted according to CLSI[39] using CAMHB. Durlobactam and avibactam were synthesized at Entasis Therapeutics. Cefpodoxime (catalog no. J66225) was purchased from Alfa Aesar.
# [8] = tested on: MDR Enterobacterales clinical isolates; assay: Broth microdilution MIC, statements over the isolate panel; format: cell-based; details: read-out: MIC across the clinical isolates of Table 6
# Description: as §1, §2
# [9] = Stability in intestinal S9 fraction; format: in vitro ADME, human; details: for half-life at 10 μM: human, intestinal S9 fraction, pH 7.4
# Description: (§3) Liver and intestinal S9 subcellular fractions (Xenotech) from rat and human tissue were diluted to a protein concentration of 0.8 mg/mL in 100 mM potassium phosphate buffer, pH 7.4, and preincubated in a 37 °C water bath for 5 min prior to addition of 10 μM (final) of compound of interest. Serial aliquots were removed at 0, 2, 5, 10, 20, 40, and 60 min and quenched in acetonitrile with internal standard prior to LC/MS/MS[30] to determine concentrations of prodrug. First order degradation half-lives were determined from the slope of the log–linear plots of the depletion data.
# [10] = Stability in liver S9 fraction; format: in vitro ADME, human; details: 37 °C; for Half-life, Human liver S9: 0.8 mg/mL protein, 10 μM
# Description: as §3
# [11] = Intravenous and oral pharmacokinetics in rats; details: rat, 10 mg/kg equivalent dose of ETX1317
# [12] = Stability in liver S9 fraction; format: in vitro ADME, rat; details: 37 °C; for Half-life, Rat liver S9: 0.8 mg/mL protein, 10 μM
# Description: as §3
# [13] = Phase 1 clinical trials in healthy volunteers (NCT03491748); format: in vivo, human; details: alone or in combination with cefpodoxime proxetil
# Description: (§4) The safety of ETX0282 was investigated with a 14-day toxicology study under Good Laboratory Practice (GLP) in rats and dogs following daily oral administration. The doses of 500 mg kg^–1 day^–1 and 400 mg kg^–1 day^–1 were established as the NOAELs (no observed adverse effect level) for rats and dogs, respectively.
# [14] = Stability in intestinal S9 fraction; format: in vitro ADME, rat; details: for half-life at 10 μM: rat, intestinal S9 fraction, pH 7.4
# Description: as §3
# [15] = Buffer stability of ester prodrugs; format: physicochemical; details: potassium phosphate buffer pH 7.4, 37 °C; for Half-life, pH 7.4 buffer: 10 μM
# Description: Buffer stability (potassium phosphate buffer, pH 7.4) was evaluated using the same protocol but without adding the S9 subcellular fractions.
# [16] = 14-day GLP toxicology study, daily oral administration; details: in vivo
# Description: as §4
# E. coli ARC2687 = assay: Neutropenic mouse thigh infection model; format: in vivo; details: CPDP alone, po, q6h
# [17] = 0.8 mg/mL protein, 10 μM, 37 °C
# [18] = species not given in the sentence, read-out: t1/2, stability to intestinal esterases
# E. coli TEM-1 (Class A), sequence (P62593 24-286 limits assumed): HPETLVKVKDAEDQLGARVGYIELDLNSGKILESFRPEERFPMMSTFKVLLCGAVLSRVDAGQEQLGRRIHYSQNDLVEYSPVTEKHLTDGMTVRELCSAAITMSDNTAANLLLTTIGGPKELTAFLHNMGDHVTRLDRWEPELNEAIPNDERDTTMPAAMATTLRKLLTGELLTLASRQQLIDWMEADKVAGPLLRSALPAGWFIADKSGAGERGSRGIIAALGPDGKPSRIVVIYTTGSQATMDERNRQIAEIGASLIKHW
# P. aeruginosa AmpC (Class C), sequence (P24735 27-397): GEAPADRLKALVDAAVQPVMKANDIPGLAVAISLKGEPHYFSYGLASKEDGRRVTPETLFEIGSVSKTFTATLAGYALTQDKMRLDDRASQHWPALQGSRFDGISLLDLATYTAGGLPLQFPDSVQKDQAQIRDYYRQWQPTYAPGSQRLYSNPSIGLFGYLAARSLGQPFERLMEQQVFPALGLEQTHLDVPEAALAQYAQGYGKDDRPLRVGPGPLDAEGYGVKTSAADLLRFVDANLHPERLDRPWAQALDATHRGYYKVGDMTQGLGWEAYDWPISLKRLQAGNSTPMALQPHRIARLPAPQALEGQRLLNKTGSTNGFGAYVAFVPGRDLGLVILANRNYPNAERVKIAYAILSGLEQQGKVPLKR
# K. pneumoniae OXA-48 (Class D), sequence (Q6XEC0 23-265, looked up): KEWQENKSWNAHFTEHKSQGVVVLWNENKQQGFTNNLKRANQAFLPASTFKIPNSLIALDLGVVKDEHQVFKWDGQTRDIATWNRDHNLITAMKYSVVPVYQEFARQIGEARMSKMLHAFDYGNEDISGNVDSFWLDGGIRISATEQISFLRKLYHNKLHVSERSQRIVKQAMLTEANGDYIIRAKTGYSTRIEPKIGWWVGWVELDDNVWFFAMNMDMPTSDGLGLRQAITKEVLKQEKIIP
smiles,measurement,setting,value
"CC1=C[C@@H]2CN(C(=O)N2OS(=O)(=O)O)[C@@H]1C(N)=O [Durlobactam, durlobactam]",logD,log D,< 0
same,IC50,"[1]; IC50 10 min, P. aeruginosa AmpC (Class C), 10 min incubation",0.008 ± 0.003 µM
same,IC50,"[1]; IC50 60 min, P. aeruginosa AmpC (Class C), 60 min incubation",0.0058 µM
same,IC50,"[2]; IC50 10 min, 10 min incubation",24 ± 6 nM
same,IC50,"[2]; IC50 60 min, 60 min incubation",5 nM
same,MIC,[3],8 µg/mL
same,MIC,[4],0.25 µg/mL
same,oral bioavailability F,[5],< 10%
CC1=C[C@@H]2CN(C(=O)N2OC(F)(F)C(=O)O)[C@@H]1C(N)=O [Compound 2],IC50,E. coli TEM-1 (Class A),0.001 µM
same,IC50,[6],< 15 nM
C[C@H]1COc2c(N3CCN(C)CC3)c(F)cc3c(=O)c(C(=O)O)cn1c23 [levofloxacin],MIC,[7],> 4 µg/mL
COCC1=C(C(=O)O)N2C(=O)[C@@H](NC(=O)/C(=N\OC)c3csc(N)n3)[C@H]2SC1 [cefpodoxime],MIC,[8],> 64 µg/mL
"CC1=C[C@@H](C(N)=O)N2C[C@@H]1N(O[C@H](F)C(=O)OC(C)C)C2=O [Compound 23, (2R)-Isopropyl 2-(((2S,5R)-2-Carbamoyl-4-methyl-7-oxo-1,6-diazabicyclo[3.2.1]oct-3-en-6-yl)oxy)-2-fluoroacetate]","Half-life, Human intestinal S9",[9]; [17],163 min
same,"Half-life, Human liver S9",[10],39 min
same,circulating concentrations of ETX0282 after oral ETX0282,[11],no circulating concentrations of ETX0282 observed
same,"Half-life, Rat liver S9",[12],32 min
same,serious adverse events,[13],no serious adverse events reported
same,tolerability,[13],generally well-tolerated
same,"Half-life, Rat intestinal S9",[14]; [17],240 min
same,"Half-life, pH 7.4 buffer",[15],186 min
same,NOAEL at 14 day,"[16]; dog, dogs",400 mg/kg/day
same,NOAEL at 14 day,"[16]; rat, rats",500 mg/kg/day
CC1=C[C@@H](C(N)=O)N2C[C@@H]1N(O[C@@H](F)C(=O)O)C2=O [Compound 14],MIC,[4],0.5 µg/mL
"NC(=O)[C@@H]1CC[C@@H]2CN1C(=O)N2OS(=O)(=O)O [Avibactam, avibactam]",logD,log D,< 0
same,oral bioavailability F,[5],< 10%
C[C@@H](O)[C@H]1C(=O)N2C(C(=O)O)=C(S[C@@H]3CN[C@H](C(=O)N(C)C)C3)[C@H](C)[C@H]12 [meropenem],MIC,[7],0.03 µg/mL
"CCOC(=O)[C@@H](F)ON1C(=O)N2C[C@H]1C(C)=C[C@H]2C(N)=O [Compound 22, Ethyl (2R)-2-[[(2S,5R)-2-Carbamoyl-4-methyl-7-oxo-1,6-diazabicyclo[3.2.1]oct-3-en-6-yl]oxy]-2-fluoro-acetate]","Half-life, Human intestinal S9",[9]; [17],35 min
same,"Half-life, Human liver S9",[10],27 min
same,"Half-life, Rat liver S9",[12],20 min
same,"Half-life, Rat intestinal S9",[14]; [17],42 min
same,"Half-life, pH 7.4 buffer",[15],44 min
CC1=C[C@@H]2CN(C(=O)N2O[C@H](F)C(=O)O)[C@@H]1C(N)=O [Compound 4],IC50,E. coli TEM-1 (Class A),0.001 µM
same,fold reduction of cefpodoxime MIC compared to the MIC with no BLI,"[3]; K. pneumoniae ARC561, BLI 4 μg/mL",greater than 128 fold
same,fold reduction of cefpodoxime MIC compared to the MIC with no BLI,"[4]; E. coli ARC3627, BLI 4 μg/mL",greater than 128 fold
"COCC1=C(C(=O)OC(C)OC(=O)OC(C)C)N2C(=O)[C@@H](NC(=O)/C(=N\OC)c3csc(N)n3)[C@H]2SC1 (stereo partly drawn) [CPDP, cefpodoxime proxetil]",efficacy in thigh model,E. coli ARC2687,not efficacious
CCOC(=O)[C@@H](F)ON1C(=O)N2C[C@H]1C=C(C)[C@H]2C(N)=O [Compound 15],"Half-life, Human intestinal S9",[9]; [17],38 min
same,"Half-life, Human liver S9",[10],6.5 min
same,"Half-life, Rat liver S9",[12],4.4 min
same,"Half-life, Rat intestinal S9",[14]; [17],39 min
same,"Half-life, pH 7.4 buffer",[15],41 min
CCOC(=O)[C@H](F)ON1C(=O)N2C[C@H]1C=C(C)[C@H]2C(=O)NCCNS(N)(=O)=O [Compound 19],half-life at 10 μM,"[9]; 0.8 mg/mL protein, 10 μM, 37 °C, read-out: Half-life, Human intestinal S9",22 min
same,half-life at 10 μM,"[10]; human, liver S9 fraction, pH 7.4, 0.8 mg/mL protein",9.9 min
same,half-life at 10 μM,"[12]; rat, liver S9 fraction, pH 7.4, 0.8 mg/mL protein",10 min
same,half-life at 10 μM,"[14]; 0.8 mg/mL protein, 10 μM, 37 °C, read-out: Half-life, Rat intestinal S9",20 min
same,half-life at 10 μM,[15]; potassium phosphate buffer without S9 fractions,26 min
CC1=C[C@@H]2CN(C(=O)N2O[C@H](F)C(=O)OC(C)C)[C@@H]1C(N)=O [Compound 16],half-life at 10 μM,[9]; [18],> 120 min
same,half-life at 10 μM,[14]; [18],> 120 min
CC1=C[C@@H](C(N)=O)N2C[C@@H]1N(O[C@@H](F)C(=O)OC(C)C)C2=O [Compound 21],"Half-life, Human intestinal S9",[9]; [17],36 min
same,"Half-life, Human liver S9",[10],8.5 min
same,"Half-life, Rat liver S9",[12],3 min
same,"Half-life, Rat intestinal S9",[14]; [17],68 min
same,"Half-life, pH 7.4 buffer",[15],91 min
"CC1=C[C@@H](C(N)=O)N2C[C@@H]1N(O[C@H](F)C(=O)O)C2=O [Compound 13, (2R)-2-(((2S,5R)-2-Carbamoyl-4-methyl-7-oxo-1,6-diazabicyclo[3.2.1]oct-3-en-6-yl)oxy)-2-fluoroacetic Acid Lithium Salt]",IC50,E. coli TEM-1 (Class A),0.003 µM
same,IC50,"[1]; IC50 (µM) P. aeruginosa AmpC (Class C), supplement CSV, incubation time not given, values correspond to 60 min",0.16 µM
same,MIC,[3],16 µg/mL
CCOC(=O)[C@H](F)ON1C(=O)N2C[C@H]1C(C)=C[C@H]2C(N)=O [Compound 20],"Half-life, Human intestinal S9",[9]; [17],6.9 min
same,"Half-life, Human liver S9",[10],2.4 min
same,"Half-life, Rat liver S9",[12],2.4 min
same,"Half-life, Rat intestinal S9",[14]; [17],18 min
same,"Half-life, pH 7.4 buffer",[15],22 min
